How the values were obtained:
HIPK3 = HIPK3 (Homo sapiens, UniProt Q9H422); experiment: Kinase panel; format: biochemical; conditions: HIPK3, 1 µM; read-out: residual enzyme activity
Outline: (§1)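 Biochemical profiling at one dose (1 µM) across a full kinase panel; % activity remaining derived for each enzyme; those at 40% or lower retained as hits.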

LOK/STK10 = LOK/STK10 (Homo sapiens, UniProt O94804); experiment: Kinase panel; format: biochemical; conditions: LOK/STK10, 1 µM; read-out: residual enzyme activity
Outline: as §1

CDK2/CYCLIN O = CDK2/CYCLIN O (Homo sapiens, UniProt P24941); experiment: Kinase panel; format: biochemical; conditions: read-out: residual enzyme activity
Outline: as §1

STK22D/TSSK1 = STK22D/TSSK1 (Homo sapiens, UniProt Q9BXA7); experiment: Kinase panel; format: biochemical; conditions: STK22D/TSSK1, 1 µM; read-out: residual enzyme activity
Outline: as §1

DYRK3 = DYRK3 (Homo sapiens, UniProt O43781); experiment: Kinase panel; format: biochemical; conditions: DYRK3, 1 µM; read-out: residual enzyme activity
Outline: as §1

MRCKA/CDC42BPA = MRCKA/CDC42BPA (Homo sapiens, UniProt Q5VT25); experiment: Kinase panel; format: biochemical; conditions: read-out: residual enzyme activity
Outline: as §1

PKCIOTA = PKCIOTA (Homo sapiens, UniProt P41743); experiment: Kinase panel; format: biochemical; conditions: read-out: residual enzyme activity
Outline: as §1

PHKG2 = PHKG2 (Homo sapiens, UniProt P15735); experiment: Kinase panel; format: biochemical; conditions: PHKg2, 1 µM; read-out: residual enzyme activity
Outline: as §1

ALK2/ACVR1 = ALK2/ACVR1 (Homo sapiens, UniProt Q04771); experiment: Kinase panel; format: biochemical; conditions: ALK2/ACVR1, 1 µM; read-out: residual enzyme activity
Outline: as §1

MST4 = MST4 (Homo sapiens, UniProt Q9P289); experiment: Kinase panel; format: biochemical; conditions: MST4, 1 µM; read-out: residual enzyme activity
Outline: as §1

RIPK2 = RIPK2 (Homo sapiens, UniProt O43353); experiment: Kinase panel; format: biochemical; conditions: RIPK2, 1 µM; read-out: residual enzyme activity
Outline: as §1

PRKX = PRKX (Homo sapiens, UniProt P51817); experiment: Kinase panel; format: biochemical; conditions: read-out: residual enzyme activity
Outline: as §1

GRK1 = GRK1 (Homo sapiens, UniProt Q15835); experiment: Kinase panel; format: biochemical; conditions: GRK1, 1 µM; read-out: residual enzyme activity
Outline: as §1

ABL1 = ABL1 (Homo sapiens, UniProt P00519); experiment: Kinase panel; format: biochemical; conditions: ABL1, 1 µM; read-out: residual enzyme activity
Outline: as §1

STK32B/YANK2 = STK32B/YANK2 (Homo sapiens, UniProt Q9NY57); experiment: Kinase panel; format: biochemical; conditions: STK32B/YANK2, 1 µM; read-out: residual enzyme activity
Outline: as §1

ZAK/MLTK = ZAK/MLTK (Homo sapiens, UniProt Q9NYL2); experiment: Kinase panel; format: biochemical; conditions: read-out: residual enzyme activity
Outline: as §1

CDK1/CYCLIN E = CDK1/CYCLIN E (Homo sapiens, UniProt P06493); experiment: Kinase panel; format: biochemical; conditions: read-out: residual enzyme activity
Outline: as §1

PAK6 = PAK6 (Homo sapiens, UniProt Q9NQU5); experiment: Kinase panel; format: biochemical; conditions: PAK6, 1 µM; read-out: residual enzyme activity
Outline: as §1

CDK6/CYCLIN D3 = CDK6/CYCLIN D3 (Homo sapiens, UniProt Q00534); experiment: Kinase panel; format: biochemical; conditions: CDK6/cyclin D3, 1 µM; read-out: residual enzyme activity
Outline: as §1

TYRO3/SKY = TYRO3/SKY (Homo sapiens, UniProt Q06418); experiment: Kinase panel; format: biochemical; conditions: read-out: residual enzyme activity
Outline: as §1

MARK3 = MARK3 (Homo sapiens, UniProt P27448); experiment: Kinase panel; format: biochemical; conditions: MARK3, 1 µM; read-out: residual enzyme activity
Outline: as §1

ASK1/MAP3K5 = ASK1/MAP3K5 (Homo sapiens, UniProt Q99683); experiment: Kinase panel; format: biochemical; conditions: ASK1/MAP3K5, 1 µM; read-out: residual enzyme activity
Outline: as §1

ERK5/MAPK7 = ERK5/MAPK7 (Homo sapiens, UniProt Q13164); experiment: Kinase panel; format: biochemical; conditions: ERK5/MAPK7, 1 µM; read-out: residual enzyme activity
Outline: as §1

MLK2/MAP3K10 = MLK2/MAP3K10 (Homo sapiens, UniProt Q02779); experiment: Kinase panel; format: biochemical; conditions: MLK2/MAP3K10, 1 µM; read-out: residual enzyme activity
Outline: as §1

SIK2 = SIK2 (Homo sapiens, UniProt Q9H0K1); experiment: Kinase panel; format: biochemical; conditions: SIK2, 1 µM; read-out: residual enzyme activity
Outline: as §1

TEC = TEC (Homo sapiens, UniProt P42680); experiment: Kinase panel; format: biochemical; conditions: read-out: residual enzyme activity
Outline: as §1

C4-2B = experiment: Cell line inhibition analysis (CCK-8, 72 h); format: cell-based; conditions: read-out: Cell growth inhibition GI50 C4-2B
Outline: (§2)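 Cells attached one day, then treated 72 h at 37 °C with nine 3-fold compound dilutions (final 0-50 µM) or DMSO. Growth read by CCK-8 absorbance at 450 nm after 2 h, medium-blank corrected, with a day-0 plate defining 0% growth; GI50 calculated.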

22Rv1 = experiment: Cell line inhibition analysis (CCK-8, 72 h); format: cell-based; conditions: Homo sapiens; 22Rv1, 72 hours; read-out: Cell growth inhibition GI50 22Rv1
Outline: as §2

DYRK3, sequence (O43781 whole entry, species assumed): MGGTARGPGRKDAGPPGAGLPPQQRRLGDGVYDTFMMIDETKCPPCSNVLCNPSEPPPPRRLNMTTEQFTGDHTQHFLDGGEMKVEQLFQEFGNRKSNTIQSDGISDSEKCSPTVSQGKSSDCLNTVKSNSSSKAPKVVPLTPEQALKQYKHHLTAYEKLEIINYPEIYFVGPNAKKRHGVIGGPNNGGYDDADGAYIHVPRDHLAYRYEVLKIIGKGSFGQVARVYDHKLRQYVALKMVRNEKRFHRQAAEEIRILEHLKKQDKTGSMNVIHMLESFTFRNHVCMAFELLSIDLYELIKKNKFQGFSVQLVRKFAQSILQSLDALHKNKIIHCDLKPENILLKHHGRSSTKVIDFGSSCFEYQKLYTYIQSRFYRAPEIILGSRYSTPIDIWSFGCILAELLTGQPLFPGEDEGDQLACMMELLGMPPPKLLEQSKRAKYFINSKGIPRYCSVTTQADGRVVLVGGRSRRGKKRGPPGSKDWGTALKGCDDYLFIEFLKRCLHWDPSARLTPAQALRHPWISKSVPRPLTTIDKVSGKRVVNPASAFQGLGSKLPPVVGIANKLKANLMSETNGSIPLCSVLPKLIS
PAK6, sequence (Q9NQU5 whole entry, species assumed): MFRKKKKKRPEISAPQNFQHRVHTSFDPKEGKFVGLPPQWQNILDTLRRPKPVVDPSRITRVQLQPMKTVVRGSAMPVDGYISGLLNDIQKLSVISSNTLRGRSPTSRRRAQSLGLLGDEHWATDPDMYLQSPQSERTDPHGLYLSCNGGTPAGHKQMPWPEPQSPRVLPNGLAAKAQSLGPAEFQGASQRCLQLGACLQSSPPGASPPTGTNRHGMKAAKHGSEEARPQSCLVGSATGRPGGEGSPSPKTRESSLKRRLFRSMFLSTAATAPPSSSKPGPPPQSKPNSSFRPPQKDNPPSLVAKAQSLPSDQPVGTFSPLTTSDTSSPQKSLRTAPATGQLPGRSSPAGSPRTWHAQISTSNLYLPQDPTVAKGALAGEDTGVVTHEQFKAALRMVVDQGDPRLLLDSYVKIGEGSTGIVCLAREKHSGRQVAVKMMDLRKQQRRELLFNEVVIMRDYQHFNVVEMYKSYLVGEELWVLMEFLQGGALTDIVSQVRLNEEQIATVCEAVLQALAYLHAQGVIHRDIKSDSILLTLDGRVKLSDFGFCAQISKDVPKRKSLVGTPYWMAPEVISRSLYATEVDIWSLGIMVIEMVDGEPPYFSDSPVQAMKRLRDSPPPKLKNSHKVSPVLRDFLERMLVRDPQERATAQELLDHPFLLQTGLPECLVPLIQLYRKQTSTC
CDK1/CYCLIN E, sequence (P06493 whole entry, species assumed): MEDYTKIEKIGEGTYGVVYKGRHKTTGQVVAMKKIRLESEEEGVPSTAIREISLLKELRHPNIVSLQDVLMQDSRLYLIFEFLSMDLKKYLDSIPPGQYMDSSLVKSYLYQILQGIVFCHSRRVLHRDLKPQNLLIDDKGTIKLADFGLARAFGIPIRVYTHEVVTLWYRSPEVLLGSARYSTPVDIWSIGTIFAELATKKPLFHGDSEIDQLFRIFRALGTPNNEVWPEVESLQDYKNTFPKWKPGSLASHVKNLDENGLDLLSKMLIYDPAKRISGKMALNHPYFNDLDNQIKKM
CDK1/CYCLIN E, sequence (P24864 whole entry partner, species assumed): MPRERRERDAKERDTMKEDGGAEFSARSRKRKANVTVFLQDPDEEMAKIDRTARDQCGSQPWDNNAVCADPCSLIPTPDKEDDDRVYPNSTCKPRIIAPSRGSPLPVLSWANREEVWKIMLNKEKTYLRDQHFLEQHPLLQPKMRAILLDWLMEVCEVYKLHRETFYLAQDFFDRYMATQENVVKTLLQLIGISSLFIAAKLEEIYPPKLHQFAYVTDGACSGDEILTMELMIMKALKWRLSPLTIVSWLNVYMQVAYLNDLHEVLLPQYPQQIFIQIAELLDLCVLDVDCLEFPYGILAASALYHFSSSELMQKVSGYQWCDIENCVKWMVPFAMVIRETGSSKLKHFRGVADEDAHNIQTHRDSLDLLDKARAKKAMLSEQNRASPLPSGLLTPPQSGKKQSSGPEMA
HIPK3, sequence (Q9H422 whole entry, species assumed): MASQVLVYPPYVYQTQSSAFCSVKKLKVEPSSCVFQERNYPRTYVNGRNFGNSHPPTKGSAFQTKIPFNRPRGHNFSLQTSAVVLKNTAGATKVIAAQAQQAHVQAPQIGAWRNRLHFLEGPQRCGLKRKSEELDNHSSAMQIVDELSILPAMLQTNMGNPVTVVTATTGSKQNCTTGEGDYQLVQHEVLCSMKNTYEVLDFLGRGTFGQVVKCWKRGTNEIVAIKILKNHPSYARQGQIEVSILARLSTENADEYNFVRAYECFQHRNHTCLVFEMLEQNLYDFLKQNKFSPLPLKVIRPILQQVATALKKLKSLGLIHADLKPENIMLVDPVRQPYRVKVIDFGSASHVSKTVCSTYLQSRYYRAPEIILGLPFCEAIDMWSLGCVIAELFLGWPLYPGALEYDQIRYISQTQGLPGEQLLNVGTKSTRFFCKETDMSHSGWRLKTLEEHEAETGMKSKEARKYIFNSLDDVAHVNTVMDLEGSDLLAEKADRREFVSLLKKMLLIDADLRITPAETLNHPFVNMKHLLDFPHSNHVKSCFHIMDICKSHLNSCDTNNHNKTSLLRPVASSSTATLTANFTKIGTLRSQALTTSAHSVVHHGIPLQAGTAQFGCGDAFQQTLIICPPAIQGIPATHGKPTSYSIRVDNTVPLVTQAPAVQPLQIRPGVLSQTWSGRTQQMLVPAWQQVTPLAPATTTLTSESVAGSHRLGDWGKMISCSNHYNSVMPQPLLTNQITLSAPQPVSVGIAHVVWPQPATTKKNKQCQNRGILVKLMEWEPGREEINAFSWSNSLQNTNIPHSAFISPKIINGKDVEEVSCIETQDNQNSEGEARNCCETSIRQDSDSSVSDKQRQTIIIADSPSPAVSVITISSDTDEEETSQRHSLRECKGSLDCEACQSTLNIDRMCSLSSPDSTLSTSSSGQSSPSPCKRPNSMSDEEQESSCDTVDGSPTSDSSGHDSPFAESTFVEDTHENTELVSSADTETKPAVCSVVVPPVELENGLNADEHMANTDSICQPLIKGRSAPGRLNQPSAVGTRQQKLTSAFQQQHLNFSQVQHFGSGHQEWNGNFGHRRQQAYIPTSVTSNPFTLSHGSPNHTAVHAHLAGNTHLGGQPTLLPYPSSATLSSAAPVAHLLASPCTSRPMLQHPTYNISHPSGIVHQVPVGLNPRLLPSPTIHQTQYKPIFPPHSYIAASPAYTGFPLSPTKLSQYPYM
MARK3, sequence (P27448 whole entry, species assumed): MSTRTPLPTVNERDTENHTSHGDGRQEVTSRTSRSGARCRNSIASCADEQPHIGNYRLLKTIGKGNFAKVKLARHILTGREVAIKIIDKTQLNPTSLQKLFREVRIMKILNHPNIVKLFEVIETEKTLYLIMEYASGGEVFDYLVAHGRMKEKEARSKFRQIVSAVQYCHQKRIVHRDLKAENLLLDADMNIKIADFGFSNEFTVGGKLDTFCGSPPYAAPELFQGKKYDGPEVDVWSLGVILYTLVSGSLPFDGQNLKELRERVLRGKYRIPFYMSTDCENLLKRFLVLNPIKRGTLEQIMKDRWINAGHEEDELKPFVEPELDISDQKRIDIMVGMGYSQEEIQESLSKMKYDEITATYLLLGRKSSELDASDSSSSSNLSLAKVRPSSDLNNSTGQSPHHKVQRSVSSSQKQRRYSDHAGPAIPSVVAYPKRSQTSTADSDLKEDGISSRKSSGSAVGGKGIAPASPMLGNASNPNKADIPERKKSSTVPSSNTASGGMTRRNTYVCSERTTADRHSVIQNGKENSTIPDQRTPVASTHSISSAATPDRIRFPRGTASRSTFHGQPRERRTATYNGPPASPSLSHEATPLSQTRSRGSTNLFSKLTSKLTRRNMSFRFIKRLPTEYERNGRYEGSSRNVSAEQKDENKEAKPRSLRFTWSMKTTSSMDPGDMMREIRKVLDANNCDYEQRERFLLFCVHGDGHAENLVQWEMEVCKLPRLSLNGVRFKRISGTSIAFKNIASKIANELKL
GRK1, sequence (Q15835 whole entry, species assumed): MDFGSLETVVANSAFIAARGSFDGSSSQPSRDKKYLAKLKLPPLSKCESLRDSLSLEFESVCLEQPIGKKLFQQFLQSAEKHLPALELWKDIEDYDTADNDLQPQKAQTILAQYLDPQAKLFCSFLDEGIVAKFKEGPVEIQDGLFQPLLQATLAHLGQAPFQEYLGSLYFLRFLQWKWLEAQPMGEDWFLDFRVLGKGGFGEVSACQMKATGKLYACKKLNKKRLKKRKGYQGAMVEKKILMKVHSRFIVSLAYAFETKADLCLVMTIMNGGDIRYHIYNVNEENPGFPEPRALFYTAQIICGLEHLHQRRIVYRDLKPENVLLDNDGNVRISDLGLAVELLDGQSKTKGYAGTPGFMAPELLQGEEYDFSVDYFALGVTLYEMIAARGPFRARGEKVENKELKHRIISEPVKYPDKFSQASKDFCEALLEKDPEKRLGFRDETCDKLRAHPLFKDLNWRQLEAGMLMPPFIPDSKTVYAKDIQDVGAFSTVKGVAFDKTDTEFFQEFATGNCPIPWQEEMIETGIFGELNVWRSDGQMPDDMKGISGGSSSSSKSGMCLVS
PRKX, sequence (P51817 whole entry, species assumed): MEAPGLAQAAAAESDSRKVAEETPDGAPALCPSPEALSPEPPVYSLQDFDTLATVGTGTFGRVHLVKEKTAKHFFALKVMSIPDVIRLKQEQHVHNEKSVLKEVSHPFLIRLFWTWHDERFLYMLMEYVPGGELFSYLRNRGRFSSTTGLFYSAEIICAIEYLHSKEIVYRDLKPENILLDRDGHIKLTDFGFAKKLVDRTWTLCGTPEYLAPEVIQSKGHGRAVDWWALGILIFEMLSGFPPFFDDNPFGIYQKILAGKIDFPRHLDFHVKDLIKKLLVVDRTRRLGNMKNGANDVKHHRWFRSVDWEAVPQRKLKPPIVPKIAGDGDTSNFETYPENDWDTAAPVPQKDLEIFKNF

SMILES: Cc1ccc(Nc2ncc3c(n2)C2(CC2)C(=O)N(c2cc(NC(=O)c4cccc(C(F)(F)F)c4)ccc2C)C3)cn1 [Compound 51, N-(4-methyl-3-(2'-((6-methylpyridin-3-yl)amino)-7'-oxo-5'H-spiro[cyclopropane-1,8'-pyrido[4,3-d]pyrimidine]-6'(7'H)-yl)phenyl)-3-(trifluoromethyl)benzamide]
- remaining activity at 1 µM (HIPK3): > 40%
- remaining activity at 1 µM (LOK/STK10): ≤ 40%
- remaining activity at 1 µM (CDK2/CYCLIN O): > 40%
- remaining activity at 1 µM (STK22D/TSSK1): > 40%
- remaining activity at 1 µM (DYRK3): > 40%
- remaining activity at 1 µM (MRCKA/CDC42BPA): > 40%
- remaining activity at 1 µM (PKCIOTA): > 40%
- remaining activity at 1 µM (PHKG2): > 40%
- remaining activity at 1 µM (ALK2/ACVR1): > 40%
- remaining activity at 1 µM (MST4): > 40%
- remaining activity at 1 µM (RIPK2): > 40%
- remaining activity at 1 µM (PRKX): > 40%
- remaining activity at 1 µM (GRK1): > 40%
- remaining activity at 1 µM (ABL1): ≤ 40%
- remaining activity at 1 µM (STK32B/YANK2): ≤ 40%
- remaining activity at 1 µM (ZAK/MLTK): ≤ 40%
- remaining activity at 1 µM (CDK1/CYCLIN E): > 40%
- remaining activity at 1 µM (PAK6): > 40%
- remaining activity at 1 µM (CDK6/CYCLIN D3): > 40%
- remaining activity at 1 µM (TYRO3/SKY): ≤ 40%
- remaining activity at 1 µM (MARK3): > 40%
- remaining activity at 1 µM (ASK1/MAP3K5): > 40%
- remaining activity at 1 µM (ERK5/MAPK7): > 40%
- remaining activity at 1 µM (MLK2/MAP3K10): ≤ 40%
- remaining activity at 1 µM (SIK2): ≤ 40%
- remaining activity at 1 µM (TEC): ≤ 40%

SMILES: Cc1cn(-c2cc(C(=O)Nc3ccc(C)c(N4Cc5cnc(NC6CC6)nc5C5(CC5)C4=O)c3)cc(C(F)(F)F)c2)cn1 [Compound 8, N-(3-(2'-(cyclopropylamino)-7'-oxo-5'H-spiro[cyclopropane-1,8'-pyrido[4,3-d]pyrimidine]-6'(7'H)-yl)-4-methylphenyl)-3-(4-methyl-1H-imidazol-1-yl)-5-(trifluoromethyl)benzamide]
- GI50 (C4-2B): < 1000 nM
- GI50 (22Rv1): < 1000 nM
- remaining activity at 1 µM (HIPK3): > 40%
- remaining activity at 1 µM (LOK/STK10): ≤ 40%
- remaining activity at 1 µM (CDK2/CYCLIN O): > 40%
- remaining activity at 1 µM (STK22D/TSSK1): > 40%
- remaining activity at 1 µM (DYRK3): > 40%
- remaining activity at 1 µM (MRCKA/CDC42BPA): > 40%
- remaining activity at 1 µM (PKCIOTA): > 40%
- remaining activity at 1 µM (PHKG2): > 40%
- remaining activity at 1 µM (ALK2/ACVR1): > 40%
- remaining activity at 1 µM (MST4): > 40%
- remaining activity at 1 µM (RIPK2): > 40%
- remaining activity at 1 µM (PRKX): > 40%
- remaining activity at 1 µM (GRK1): > 40%
- remaining activity at 1 µM (ABL1): ≤ 40%
- remaining activity at 1 µM (STK32B/YANK2): ≤ 40%
- remaining activity at 1 µM (ZAK/MLTK): ≤ 40%
- remaining activity at 1 µM (CDK1/CYCLIN E): > 40%
- remaining activity at 1 µM (PAK6): > 40%
- remaining activity at 1 µM (CDK6/CYCLIN D3): > 40%
- remaining activity at 1 µM (TYRO3/SKY): > 40%
- remaining activity at 1 µM (MARK3): > 40%
- remaining activity at 1 µM (ASK1/MAP3K5): > 40%
- remaining activity at 1 µM (ERK5/MAPK7): > 40%
- remaining activity at 1 µM (MLK2/MAP3K10): > 40%
- remaining activity at 1 µM (SIK2): > 40%
- remaining activity at 1 µM (TEC): ≤ 40%
